Measurements: patent US20250270170A1, “2,3-DIMETHOXY-5-METHYL-1,4-BENZOQUINONE ALKYL ALCOHOL DERIVATIVE AND USE THEREOF” (BEIJING ANJIANXI BIO-MEDICAL TECHNOLOGY CO., LTD., priority 2021, published 2025)
Values joined by “and” are separate entries in the source; they are usually repeats but may differ in a detail not shown here. Equal entries are not always repeated. “Also recorded” adds a separate entry of the source.

Tests used:
[1] = Example 7: body weight of NCI-N87 tumor-bearing nude mice; type: in vivo; conditions: DDP 4/2/1/4 mg/kg IP
[2] = Example 11: body weight in cisplatin-induced acute kidney damage model; type: in vivo, C57BL/6J mice; conditions: mouse, in vivo
Method: (§1) 42 male C57BL/6J mice (age: 6 to 8 weeks, body weight 18-20 g, certificate number: 11400700238365) were purchased from Si Pei Fu (Beijing) Biotechnology Co., Ltd., and raised in an SPF-grade animal room of the Institute of Materia Medica, Chinese Academy of Medical Sciences, at a temperature of 20 to 25° C., a relative humidity of 40% to 70%, and a cycle of 12 hours of light and 12 hours of dark. The animals had free access to water and food. After 3 days of normal feeding, mice with good physical conditions after the veterinary examination were selected for this assay. Before grouping, a marker was used to mark on the base of the animals' tail. After grouping, each animal was marked with an ear cutout (7 mice in each group).
(§2) Assay animals: 42 7-week-old male C57 mice were used for animal testing after an adaptive feeding.
(§3) Group 1: blank control group;
(§4) The preparation of the R01 formulation administration test solution was the same as that in Example 5: an appropriate amount of the R01 formulation was weighed according to the three dosages set in the assay, respectively, and an appropriate volume of 0.5% CMC-Na aqueous solution was added. The mixture was vortexed and sonicated until mixed evenly, to give the administration test solutions with concentrations of […], respectively, which were ready for use.
(§5) Animal testing period: 7 days (excluding adaptive feeding), hereinafter referred to as: D1-D7.
(§6) 1. The first group was a solvent control group: N=7, all mice were males (the same below); • a) 0.5% solution of sodium carboxymethyl cellulose was gavagely administered from D1 to D6 (twice a day for each animal, with an interval of 8 hours between the morning and the afternoon). • b) Physiological saline was intraperitoneally injected in one-time on D4. • c) On D7, blood was collected from the orbit for euthanasia (300 ul of serum was extracted), the left kidney was fixed in formaldehyde, and the right kidney was preserved in liquid nitrogen (WB study may be carried out).
(§7) 3) Each animal was weighed before euthanasia, and the weight was recorded. Two kidneys were weighed as soon as possible after euthanasia, and the weight was recorded. Then, the two kidneys were quickly fixed or cryopreserved, and the kidney coefficient of the mouse was calculated (kidney weight/mouse weight).
(§8) The body weight of the animals when being grouped for administration in each group was recorded. The body weight and the kidney weight at the end of the assay were also recorded, and the kidney coefficient was calculated. The creatinine and urea nitrogen values in the blood samples sent for testing were recorded. The kidneys were stained with HE and PAS, and the slides were scanned. A report was issued after the pathological analysis.
(§9) The assay data were calculated and processed statistically using Microsoft Office Excel 2007 software. Unless otherwise specified, the data were expressed as mean±standard error (Mean±SE), and t-test was used for comparison between two groups.

[3] = system: cisplatin-induced acute kidney damage in mice; test: Example 11: kidney weight and kidney coefficient in cisplatin-induced acute kidney damage model; type: in vivo, C57BL/6J mice; conditions: for Kidney coefficient (kidney weight/body weight), x (mean) / Kidney weight after the assay, x (mean): group mean
Method: as §1, §2, §3, §4, §5, §6, §7, §8, §9

[4] = system: cisplatin-induced acute kidney damage in mice; test: Example 11: renal pathology (HE, PAS) and pathological scoring; type: in vivo, C57BL/6J mice; conditions: bid, listed as R01
Method: as §1, §2, §3, §4, §5
1. […]
as §8, with “The kidneys were stained with HE and PAS, and the slides were scanned. A report was issued after the pathological analysis.” left out

[5] = individual animals No. 1-7, cisplatin model, R01 6 mg/kg, listed as R01, 6 mg/kg
[6] = individual animals No. 1-7, cisplatin model, R01 18 mg/kg, listed as R01, 18 mg/kg
[7] = individual animals No. 1-7, cisplatin model, R01 36 mg/kg, listed as R01, 36 mg/kg

Question: For `N.N.[Cl][Pt][Cl]` [DDP, cisplatin], which Animal body weight ([1]; D12) is on record?
Answer: 18.6 ± 0.5 g

Question: What about the Animal body weight ([1]; D16) of the same compound?
Answer: 17.9 ± 0.3 g

Question: And the “body weight loss rate” value ([1]; D16)?
Answer: 3.9%

Question: And the Animal body weight ([1]; D19)?
Answer: 18.0 ± 0.4 g

Question: What about the “body weight loss rate” value ([1]; D19) of the same compound?
Answer: 3.3%

Question: What about the Animal body weight ([1]; D23) of the same compound?
Answer: 16.9 ± 0.5 g

Question: And the “body weight loss rate” value ([1]; D23)?
Answer: 9.2%

Question: And the Animal body weight ([1]; D26)?
Answer: 17.9 ± 0.5 g

Question: And the “body weight loss rate” value ([1]; D26)?
Answer: 3.4%

Question: What about the Animal body weight ([1]; D30) of the same compound?
Answer: 17.5 ± 0.3 g

Question: And the “body weight loss rate” value ([1]; D30)?
Answer: 6.0%

Question: And the Animal body weight ([1]; D33)?
Answer: 18.6 ± 0.4 g

Question: And the “body weight loss rate” value ([1]; D33)?
Answer: 0.090%

Question: What about the Animal body weight ([1]; D37) of the same compound?
Answer: 18.9 ± 0.4 g

Question: And the “body weight loss rate” value ([1]; D37)?
Answer: −2.0%

Question: What about the Animal body weight ([1]; D40) of the same compound?
Answer: 19.2 ± 0.4 g

Question: What about the “body weight loss rate” value ([1]; D40) of the same compound?
Answer: −3.1%

Question: And the Animal body weight ([1]; D44)?
Answer: 18.3 ± 0.3 g

Question: And the “body weight loss rate” value ([1]; D44)?
Answer: 1.4%

Question: Which “Body weight after the assay, After x (mean)” value (shortened to “Body weight after the assay”) ([2]; 6 mg/kg) does the source give for `COC1=C(OC)C(=O)C(CCCCCCCCCCOC(=O)Cc2c(C)n(C(=O)c3ccc(Cl)cc3)c3ccc(OC)cc23)=C(C)C1=O` [compound of formula (I)] here?
Answer: 16.2 g

Question: And the “Body weight, Before x- after x” value ([2]; 6 mg/kg)?
Answer: 4.2 g

Question: What about the “Body weight after the assay” value ([2]; 18 mg/kg) of the same compound?
Answer: 16.2 g

Question: And the “Body weight, Before x- after x” value ([2]; 18 mg/kg)?
Answer: 4.3 g

Question: And the “Body weight after the assay” value ([2]; 36 mg/kg)?
Answer: 16.1 g

Question: And the “Body weight, Before x- after x” value ([2]; 36 mg/kg)?
Answer: 4.4 g

Question: What about the “Kidney coefficient (kidney weight/body weight), x (mean)” value ([3]; cisplatin model, R01 6 mg/kg) of the same compound?
Answer: 0.014

Question: What about the “Kidney weight after the assay, x (mean)” value ([3]; cisplatin model, R01 6 mg/kg) of the same compound?
Answer: 0.223 g

Question: And the “Kidney coefficient (kidney weight/body weight), x (mean)” value ([3]; cisplatin model, R01 18 mg/kg)?
Answer: 0.013

Question: And the “Kidney weight after the assay, x (mean)” value ([3]; cisplatin model, R01 18 mg/kg)?
Answer: 0.211 g

Question: And the “Kidney coefficient (kidney weight/body weight), x (mean)” value ([3]; cisplatin model, R01 36 mg/kg)?
Answer: 0.013

Question: And the “Kidney weight after the assay, x (mean)” value ([3]; cisplatin model, R01 36 mg/kg)?
Answer: 0.207 g

Question: And the “Kidney coefficient (kidney weight/body weight)” value [3, 5]?
Answer: 0.013 (3×) and 0.015 and 0.014 (2×) and 0.018

Question: And the “Kidney weight after the assay” value [3, 5]?
Answer: 0.207 g and 0.212 g and 0.209 g and 0.224 g and 0.228 g and 0.214 g and 0.270 g

Question: What about the “Kidney coefficient (kidney weight/body weight)” value [3, 6] of the same compound?
Answer: 0.014 (3×) and 0.013 (4×)

Question: What about the “Kidney weight after the assay” value [3, 6] of the same compound?
Answer: 0.214 g and 0.211 g (2×) and 0.206 g and 0.215 g and 0.210 g and 0.213 g

Question: What about the “Kidney coefficient (kidney weight/body weight)” value [3, 7] of the same compound?
Answer: 0.012 and 0.014 (4×) and 0.013 (2×)

Question: What about the “Kidney weight after the assay” value [3, 7] of the same compound?
Answer: 0.192 g and 0.216 g and 0.203 g and 0.228 g and 0.213 g and 0.189 g and 0.206 g

Question: What about the “Kidney coefficient (kidney weight/body weight)” value ([3]; with cisplatin 10 mg/kg, amifostine 50 mg/kg i.p., R01 6, 18, 36 mg/kg bid) of the same compound?
Answer: equivalent to that of the blank control group

Question: And the “pathological damage of kidneys” value ([4]; cisplatin 10 mg/kg + R01 6 mg)?
Answer: severe renal tubular damage, epithelial cell necrosis and slight protein casts and 2 animals suffered serious kidney damage, and the others were mildly damaged and significantly reduced

Question: What about the “pathological damage of kidneys” value ([4]; cisplatin 10 mg/kg + R01 36 mg) of the same compound?
Answer: Only one mouse in this group showed slight pathological damage to the kidney; also recorded: basically complete kidney tissue morphology, slight damage
